These are literature values, as cited in patent publication US12611671B2, “Methods, systems and kits for in-pen assays” (Bruker Cellular Analysis, Inc., priority 2016, dated 2026).

The target of this data set is IgG. The conditions noted are these: (Fc); read-out: Affinity for IgG.

Consider “DCAWHLGELVWCT [CPD 4, Asp Cys Ala Trp His Leu Gly Glu Leu Val Trp Cys Thr]”, for which the Kd was 100 nM.
